Among the data in ChEMBL document CHEMBL2073832, “Induction of cMrp/cMoat gene expression by cisplatin, 2-acetylaminofluorene, or cycloheximide in rat hepatocytes” (Hepatology, 1997) are Activity values, retold here.

For the data set, the target named is ATP-binding cassette sub-family C member 2 (Rattus norvegicus, UniProt Q63120). In words: TP_TRANSPORTER: Northern blot from primary hepatocytes. The class given is functional, cell-based, Hepatocyte.
Chain of ATP-binding cassette sub-family C member 2 (Q63120 whole entry): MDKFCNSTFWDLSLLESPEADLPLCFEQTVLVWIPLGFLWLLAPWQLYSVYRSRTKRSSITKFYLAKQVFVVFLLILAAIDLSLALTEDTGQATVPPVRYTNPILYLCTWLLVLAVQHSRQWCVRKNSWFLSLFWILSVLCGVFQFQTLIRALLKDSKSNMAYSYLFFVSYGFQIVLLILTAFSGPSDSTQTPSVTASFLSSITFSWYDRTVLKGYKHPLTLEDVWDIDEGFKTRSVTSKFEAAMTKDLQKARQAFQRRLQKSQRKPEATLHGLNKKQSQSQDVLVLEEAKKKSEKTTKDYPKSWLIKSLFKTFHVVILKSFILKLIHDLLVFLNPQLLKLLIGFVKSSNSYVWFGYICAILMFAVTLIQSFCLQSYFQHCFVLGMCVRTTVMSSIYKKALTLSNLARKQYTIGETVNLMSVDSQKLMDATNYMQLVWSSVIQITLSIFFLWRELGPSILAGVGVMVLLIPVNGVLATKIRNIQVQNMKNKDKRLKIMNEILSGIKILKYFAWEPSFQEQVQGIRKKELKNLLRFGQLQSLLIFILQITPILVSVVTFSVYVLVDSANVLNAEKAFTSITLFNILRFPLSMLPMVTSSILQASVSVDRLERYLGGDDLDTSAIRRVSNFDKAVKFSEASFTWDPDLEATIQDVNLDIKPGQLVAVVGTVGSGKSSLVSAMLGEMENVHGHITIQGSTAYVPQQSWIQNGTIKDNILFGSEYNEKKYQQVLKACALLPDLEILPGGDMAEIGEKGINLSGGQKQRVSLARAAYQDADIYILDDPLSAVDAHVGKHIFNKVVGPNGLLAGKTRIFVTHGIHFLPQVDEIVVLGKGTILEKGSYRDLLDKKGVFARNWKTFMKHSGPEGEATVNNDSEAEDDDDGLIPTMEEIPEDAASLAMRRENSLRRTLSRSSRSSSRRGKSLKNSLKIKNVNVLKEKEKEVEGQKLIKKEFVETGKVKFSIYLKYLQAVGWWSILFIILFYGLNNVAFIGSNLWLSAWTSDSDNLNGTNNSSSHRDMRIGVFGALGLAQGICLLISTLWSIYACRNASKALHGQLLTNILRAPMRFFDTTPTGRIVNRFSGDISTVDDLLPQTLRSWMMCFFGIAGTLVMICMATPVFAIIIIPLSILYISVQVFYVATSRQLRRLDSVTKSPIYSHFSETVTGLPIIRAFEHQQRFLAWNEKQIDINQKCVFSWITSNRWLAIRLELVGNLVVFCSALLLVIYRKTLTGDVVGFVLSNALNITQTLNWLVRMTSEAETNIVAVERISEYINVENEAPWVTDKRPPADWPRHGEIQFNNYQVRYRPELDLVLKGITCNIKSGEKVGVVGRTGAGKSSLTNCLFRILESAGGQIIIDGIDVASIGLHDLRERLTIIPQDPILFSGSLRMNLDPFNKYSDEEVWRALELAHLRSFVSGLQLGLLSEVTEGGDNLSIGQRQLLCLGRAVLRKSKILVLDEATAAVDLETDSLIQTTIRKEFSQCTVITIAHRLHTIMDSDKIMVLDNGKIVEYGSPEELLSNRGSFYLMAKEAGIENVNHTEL

For `C[C@@H]1C[C@@H]([C@H](O)CC2CC(=O)NC(=O)C2)C(=O)[C@@H](C)C1` [CYCLOHEXIMIDE], the Activity result was “inducer [+]”.
